Results published in patent US9717719B2, “Treatment, prevention, and reversal of alcohol-induced liver disease” (Rhode Island Hospital, priority 2006, dated 2017).

These molecules were tested on Long-Evans male rats fed a 37% ethanol liquid diet (assay: Lipid peroxidation in liver by HNE immunostaining). Settings: chronic ethanol fed rats.
Type: in vivo, rat
Method: An isocaloric (sucrose substituted for ethanol) diet was administered to pair fed control animals. After three weeks, both groups of rats were injected with either PPAR-α, γ, or δ agonists or saline as a control. […] The […] were given IP injections twice a week. At 6 weeks, the animals underwent 2/3 partial hepatectomy. The removed liver was used for histology, measurement of lipid peroxidation, DNA damage and insulin/IGF signaling as described below. Following ⅔ hepatectomy, the liver remnants were harvested 18, 24, 30 and 48 hours later to assess the regenerative response. To do this, animals were injected IP with BrdU 2 hours before harvest to measure its incorporation into hepatic nuclei as an index of DNA synthesis.
Paraffin sections (8 μm thick) were immunostained with monoclonal antibodies to 8-hydroxy-deoxyguanosine (8-OHdG) (Oxis Research) or 4-hydroxynonenol (HNE) (Chemicon International, Temecula, Calif.), to detect DNA damage and lipid peroxidation, respectively. Prior to immunostaining, the deparaffinized, re-hydrated sections were treated with 0.1 mg/ml saponin in phosphate buffered saline (10 mM sodium phosphate, 0.9% NaCl, pH 7.4; PBS) for 20 minutes at room temperature, followed by 3% hydrogen peroxide in methanol for 10 minutes to quench endogenous peroxidase activity, and then a 30-minute incubation in SuperBlock-TBS (Pierce Chemical Co., Rockford, Ill.) to block non-specific binding sites. The tissue sections were then incubated overnight at 4° C. with 0.5-1 μg/ml of primary antibody. […] The tissue sections were counterstained with hematoxylin, preserved under coverglass, and examined by light microscopy.

Row | Compound | hepatic lipid peroxidation (HNE immunostaining)
1 | CC(C)(Sc1ccc(CCN(CCCCC2CCCCC2)C(=O)NC2CCCCC2)cc1)C(=O)O [PPAR-α, GW7647] | substantially improved
2 | CC(C)C[C@H](NC(=O)OCC1c2ccccc2-c2ccccc21)C(=O)O [PPAR-γ, F-L-Leu] | substantially improved
3 | CCCc1c(OCCCOc2ccc(OCC(=O)O)cc2)ccc(C(C)=O)c1O [PPAR-δ, L-165,041] | substantially improved
